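Protocol summary: plate cells (96-well), add compound at 5 concentrations, incubate 48 h, interpolate endpoints linearly. The concentration for 50% growth inhibition is given as GI50.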 Activity calls are given as the source filed them. Cut-off read from the data, not from the text of the source: active = GI50 up to about 1.1 µM and inactive = higher.
What was measured:
Assay in all cases: DTP human tumour cell line panel, 48 h
ACHN = tested on: ACHN
HL-60 = tested on: HL-60
786-0 = tested on: 786-0
RXF 393 = tested on: RXF 393
SF-539 = tested on: SF-539
UO-31 = tested on: UO-31
PC-3 = tested on: PC-3
OVCAR-3 = tested on: OVCAR-3
SNB-19 = tested on: SNB-19
HCC 2998 = tested on: HCC 2998
Hs-578T = tested on: Hs-578T
M14 = tested on: M14
OVCAR-8 = tested on: OVCAR-8
A549 = tested on: A549
TK-10 = tested on: TK-10
SK-MEL-28 = tested on: SK-MEL-28
MDA-N = tested on: MDA-N
UACC-62 = tested on: UACC-62
Malme-3M = tested on: Malme-3M
CCRF-CEM = tested on: CCRF-CEM

Measured: GI50

COc1ccc(/C=C/C(=O)CCN2CCN(CCC(=O)/C=C/c3ccc(OC)cc3)CC2)cc1
inactive: ACHN 14.2 µM | HL-60 4.61 µM | 786-0 3.4 µM | RXF 393 4.25 µM | SF-539 6.17 µM | UO-31 14.6 µM | PC-3 12.9 µM | OVCAR-3 11.4 µM | SNB-19 43.6 µM | HCC 2998 12.2 µM | Hs-578T 20 µM | M14 15.3 µM | OVCAR-8 20.8 µM | A549 20.9 µM | TK-10 14.9 µM | SK-MEL-28 13.6 µM | MDA-N 2.54 µM | UACC-62 13.4 µM | Malme-3M 18.7 µM

CN(C)C(=S)N1C(=S)N(c2ccccc2)C(=N/c2ccccc2)/C1=N\c1ccccc1
inactive: ACHN > 100 µM | HL-60 > 100 µM | 786-0 > 100 µM | RXF 393 > 100 µM | SF-539 > 100 µM | UO-31 > 100 µM | PC-3 > 100 µM | SNB-19 > 100 µM | CCRF-CEM > 100 µM | HCC 2998 > 100 µM | Hs-578T > 100 µM | OVCAR-8 > 100 µM | A549 > 100 µM | TK-10 > 100 µM | SK-MEL-28 > 100 µM | MDA-N > 100 µM | UACC-62 > 100 µM | Malme-3M > 100 µM

COC1C(=O)CCC2(CO2)C1(O)C1(C)OC1CCC(C)C (stereo not drawn)
inactive: ACHN 28.2 µM | HL-60 42.8 µM | 786-0 47.2 µM | RXF 393 > 100 µM | SF-539 > 100 µM | UO-31 > 100 µM | PC-3 25.9 µM | OVCAR-3 > 100 µM | SNB-19 34.2 µM | CCRF-CEM 40.4 µM | HCC 2998 47.2 µM | Hs-578T 84.3 µM | M14 20.1 µM | OVCAR-8 28 µM | SK-MEL-28 21.8 µM | MDA-N 29.4 µM | UACC-62 36.2 µM | Malme-3M 30.2 µM

CC1C(C#N)(C#N)C(C#N)=C(N)C1(C)[N+](=O)[O-] (stereo not drawn)
inactive: ACHN 87.5 µM | HL-60 29.8 µM | 786-0 56 µM | RXF 393 43.1 µM | SF-539 31.5 µM | UO-31 > 100 µM | PC-3 66.4 µM | OVCAR-3 67.9 µM | SNB-19 > 100 µM | CCRF-CEM 32.4 µM | HCC 2998 47.6 µM | Hs-578T 64.9 µM | M14 > 100 µM | OVCAR-8 65.8 µM | A549 23.5 µM | TK-10 > 100 µM | MDA-N 64.6 µM | UACC-62 50.4 µM | Malme-3M 48.2 µM

COC(=O)c1c(O)ccc2c1c1c(n2Cc2ccccn2)C(=O)c2ccccc2C1
inactive: HL-60 > 100 µM | 786-0 > 100 µM | RXF 393 31.6 µM | SF-539 87.9 µM | UO-31 54.5 µM | PC-3 16.5 µM | OVCAR-3 > 100 µM | SNB-19 > 100 µM | CCRF-CEM 27.9 µM | Hs-578T > 100 µM | M14 > 100 µM | OVCAR-8 > 100 µM | A549 66.1 µM | TK-10 > 100 µM | SK-MEL-28 > 100 µM | MDA-N > 100 µM | UACC-62 > 100 µM | Malme-3M > 100 µM

O=C(Nc1cccc2ccccc12)c1cc2ccccc2oc1=O
inactive: ACHN 24.3 µM | HL-60 > 100 µM | 786-0 13.7 µM | RXF 393 22.6 µM | SF-539 14.6 µM | PC-3 > 100 µM | OVCAR-3 70.5 µM | SNB-19 22 µM | CCRF-CEM > 100 µM | HCC 2998 > 100 µM | Hs-578T 32.8 µM | M14 > 100 µM | OVCAR-8 39.4 µM | A549 > 100 µM | SK-MEL-28 > 100 µM | MDA-N > 100 µM | UACC-62 > 100 µM | Malme-3M 12.5 µM

O=c1[nH]nc(-c2ccccc2)c2[nH]c3c(c12)CCCc1ccccc1-3
inactive: ACHN 11.9 µM | HL-60 20.9 µM | 786-0 14.2 µM | RXF 393 15.6 µM | SF-539 17.2 µM | UO-31 12.8 µM | PC-3 14.9 µM | OVCAR-3 19.3 µM | SNB-19 10.7 µM | CCRF-CEM 14 µM | HCC 2998 14.8 µM | Hs-578T 17 µM | M14 16.8 µM | OVCAR-8 17.4 µM | A549 9.46 µM | TK-10 19.4 µM | MDA-N 12.5 µM | UACC-62 11.7 µM | Malme-3M 11.8 µM

CC1C(C#N)(C#N)C(C#N)=C(N)C1(Cl)[N+](=O)[O-] (stereo not drawn)
inactive: ACHN 11.3 µM | HL-60 2.37 µM | 786-0 5.48 µM | RXF 393 4.33 µM | SF-539 11.5 µM | UO-31 15.5 µM | PC-3 17.7 µM | OVCAR-3 10 µM | SNB-19 19.3 µM | CCRF-CEM 2.18 µM | HCC 2998 17.3 µM | Hs-578T 16.1 µM | M14 5.07 µM | OVCAR-8 14.9 µM | A549 21.7 µM | TK-10 14.9 µM | MDA-N 9.04 µM | UACC-62 11.4 µM | Malme-3M 5.71 µM
